Data reported in patent US9085584B2, “Substituted pyrido[3,2-E][1,2,4]-triazolo[4,3-A]pyrazines for the treatment of central nervous system disorders” (Boehringer Ingelheim International GmbH, priority 2012, dated 2015).

How the values were obtained:
[1] = target: PDE 2A (Homo sapiens (Human), UniProt O00408); assay: PDE 2A assay with fluorescent substrate (IMAP, fluorescence polarization); type: biochemical; settings: read-out: PDE2 IC50
Method: (§1) Another, non radioactive, in-vitro assay was performed as follows • c) Phosphodiesterase (PDE) 2A and 10 Assay with Fluorescent Substrate Assay Principle:
(§2) The PDE reaction cleaves cAMP to AMP. The IMAP system (Molecular Device) using fluorescence polarization (FP) as detection principle was used to measure enzyme activity. A fluorescent labeled cAMP was used as substrate for the reaction, generating a labeled AMP. The fluorescent AMP binds specifically to the large M(III)-based nano-particles which reduces the rotational speed of the substrate and thus increases its polarization.
(§3) The inhibition of PDE 2A or 10 enzyme activity was assessed using IMAP-Phosphodiesterase-cAMP fluorescence labeled substrate (Molecular Devices, Order No. R7506), IMAP TR-FRET screening express (Molecular Devices, Order No. R8160, the TR-FRET component will not be used) and PDE 2A or PDE10 protein expressed upon baculovirus infection in SF9 cells.
(§4) All reactions were performed in 384 well plates, Perkin Elmer black optiplates and IMAP reaction buffer with 0.1% Tween20 (kit component)
(§5) Compounds were serial diluted in DMSO. With an intermediate dilution step with reaction buffer DMSO concentration was reduced to achieve 1% DMSO in the assay reaction. Setup of the assay started with 10 μl enzyme (˜10 ng/well, depending on prep. batch), 5 μl compound, reaction was started by addition of 5 μl labeled cAMP (30 nM, final concentration), immediately mixed for 15 seconds on a Eppendorf mixmate (2000 rpm) followed by an incubation at room temperature for 90 minutes in the dark. Reaction is stopped by adding of 60 μl binding buffer for FP/cAMP (kit component).
(§6) Each assay plate contained wells with vehicle controls (1% DMSO) for the measurement of non-inhibited reaction (=100% control) and wells without enzyme as 0% controls.

[2] = target: PDE10 (Homo sapiens (Human), UniProt Q9Y233); assay: PDE10 assay with fluorescent substrate (IMAP, fluorescence polarization); type: biochemical
Sequence of PDE10 (Q9Y233 whole entry, species assumed): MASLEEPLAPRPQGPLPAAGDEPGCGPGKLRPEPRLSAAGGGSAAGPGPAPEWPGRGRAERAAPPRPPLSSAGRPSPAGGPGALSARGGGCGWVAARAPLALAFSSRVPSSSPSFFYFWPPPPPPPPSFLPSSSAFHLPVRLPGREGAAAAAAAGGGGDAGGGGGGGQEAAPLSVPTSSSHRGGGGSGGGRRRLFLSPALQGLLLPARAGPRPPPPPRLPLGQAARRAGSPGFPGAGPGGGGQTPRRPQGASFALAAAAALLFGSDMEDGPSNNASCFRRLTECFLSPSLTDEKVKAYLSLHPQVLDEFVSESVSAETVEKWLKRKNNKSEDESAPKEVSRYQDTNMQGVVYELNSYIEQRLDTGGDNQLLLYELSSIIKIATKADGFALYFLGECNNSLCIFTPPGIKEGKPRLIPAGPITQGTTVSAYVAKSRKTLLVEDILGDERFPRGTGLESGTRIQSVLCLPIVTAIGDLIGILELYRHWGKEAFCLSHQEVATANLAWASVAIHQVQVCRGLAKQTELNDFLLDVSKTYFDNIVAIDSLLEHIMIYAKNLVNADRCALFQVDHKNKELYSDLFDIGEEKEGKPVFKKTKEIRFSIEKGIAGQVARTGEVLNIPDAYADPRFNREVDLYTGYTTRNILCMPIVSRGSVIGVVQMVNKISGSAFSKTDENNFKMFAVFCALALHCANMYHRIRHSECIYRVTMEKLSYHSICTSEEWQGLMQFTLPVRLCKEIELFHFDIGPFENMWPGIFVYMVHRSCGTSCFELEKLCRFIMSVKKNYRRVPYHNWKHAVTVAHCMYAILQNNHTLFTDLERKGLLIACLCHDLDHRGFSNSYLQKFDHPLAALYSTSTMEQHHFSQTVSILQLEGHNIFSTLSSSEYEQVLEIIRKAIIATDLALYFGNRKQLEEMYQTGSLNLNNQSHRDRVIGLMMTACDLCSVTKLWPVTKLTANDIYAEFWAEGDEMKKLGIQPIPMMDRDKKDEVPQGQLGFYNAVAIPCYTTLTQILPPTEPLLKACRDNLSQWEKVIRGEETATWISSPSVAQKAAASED
Method: as §1, §2, §3, §4, §5, §6

[3] = Metabolic stability in pooled liver microsomes; type: in vitro ADME, human; settings: 1 μM test compound, 37° C.; for Half-life - t½: human liver microsomes
Method: The metabolic stability of the compounds according to the invention has been investigated as follows:
The metabolic degradation of the test compound was assayed at 37° C. with pooled liver microsomes from various species. The final incubation volume of 100 μl per time point contains TRIS buffer pH 7.6 at room temperature (0.1 M), magnesium chloride (5 mM), microsomal protein (1 mg/mL for human and dog, 0.5 mg/mL for other species) and the test compound at a final concentration of 1 μM. Following a short preincubation period at 37° C., the reactions were initiated by addition of betanicotinamide adenine dinucleotide phosphate, reduced form (NADPH, 1 mM), and terminated by transferring an aliquot into solvent after different time points. […] The half-life was determined by the slope of the semi-logarithmic plot of the concentration-time profile.

[4] = target: PDE 10A (Homo sapiens (Human), UniProt Q9Y233); assay: Radioactive PDE10 assay ([3H]cAMP SPA); type: biochemical
Sequence of PDE 10A (Q9Y233 whole entry, species assumed): as above
Method: Into a 384 well plate (OptiPlate, white), the following components are pipetted (either manually or using automated pipetting devices): • 20 μl test-compound solution (test compound diluted in assay buffer at twofold the desired concentration) • +10 μl PDE 10A preparation (enzyme diluted in assay buffer to a concentration of 0.3 ng/μl protein) • +10 μl cAMP tracer (diluted in assay buffer to a concentration of 80 nM cAMP, specific activity ˜4 mCi/I)
After addition of all 3 components the plates are shortly spun and incubated at room temperature for 60 min. The reaction is stopped by the addition of 20 μl Yttrium SPA PDE Beads containing 18 mM zinc sulphate in water
PDE 10A protein is expressed upon baculovirus infection in SF9 cells. The cells have been incubated upon infection for ˜3 days and protein production was confirmed by Western Blot. The cells were collected by centrifugation and the pellet frozen in liquid nitrogen before it was resuspended in PBS containing 1% Triton X-100 and protease inhibitors. After 45 min incubation on ice, the cell debris was removed by centrifugation (13.000 rpm, 30 min).

[5] = target: hERG channel (Homo sapiens (Human), UniProt Q12809); assay: hERG-channel assay (whole-cell patch clamp, transfected HEK293 cells); type: cell-based; settings: HEK293 cells stably transfected with hERG cDNA, 35° C.
Sequence of hERG channel (Q12809 whole entry): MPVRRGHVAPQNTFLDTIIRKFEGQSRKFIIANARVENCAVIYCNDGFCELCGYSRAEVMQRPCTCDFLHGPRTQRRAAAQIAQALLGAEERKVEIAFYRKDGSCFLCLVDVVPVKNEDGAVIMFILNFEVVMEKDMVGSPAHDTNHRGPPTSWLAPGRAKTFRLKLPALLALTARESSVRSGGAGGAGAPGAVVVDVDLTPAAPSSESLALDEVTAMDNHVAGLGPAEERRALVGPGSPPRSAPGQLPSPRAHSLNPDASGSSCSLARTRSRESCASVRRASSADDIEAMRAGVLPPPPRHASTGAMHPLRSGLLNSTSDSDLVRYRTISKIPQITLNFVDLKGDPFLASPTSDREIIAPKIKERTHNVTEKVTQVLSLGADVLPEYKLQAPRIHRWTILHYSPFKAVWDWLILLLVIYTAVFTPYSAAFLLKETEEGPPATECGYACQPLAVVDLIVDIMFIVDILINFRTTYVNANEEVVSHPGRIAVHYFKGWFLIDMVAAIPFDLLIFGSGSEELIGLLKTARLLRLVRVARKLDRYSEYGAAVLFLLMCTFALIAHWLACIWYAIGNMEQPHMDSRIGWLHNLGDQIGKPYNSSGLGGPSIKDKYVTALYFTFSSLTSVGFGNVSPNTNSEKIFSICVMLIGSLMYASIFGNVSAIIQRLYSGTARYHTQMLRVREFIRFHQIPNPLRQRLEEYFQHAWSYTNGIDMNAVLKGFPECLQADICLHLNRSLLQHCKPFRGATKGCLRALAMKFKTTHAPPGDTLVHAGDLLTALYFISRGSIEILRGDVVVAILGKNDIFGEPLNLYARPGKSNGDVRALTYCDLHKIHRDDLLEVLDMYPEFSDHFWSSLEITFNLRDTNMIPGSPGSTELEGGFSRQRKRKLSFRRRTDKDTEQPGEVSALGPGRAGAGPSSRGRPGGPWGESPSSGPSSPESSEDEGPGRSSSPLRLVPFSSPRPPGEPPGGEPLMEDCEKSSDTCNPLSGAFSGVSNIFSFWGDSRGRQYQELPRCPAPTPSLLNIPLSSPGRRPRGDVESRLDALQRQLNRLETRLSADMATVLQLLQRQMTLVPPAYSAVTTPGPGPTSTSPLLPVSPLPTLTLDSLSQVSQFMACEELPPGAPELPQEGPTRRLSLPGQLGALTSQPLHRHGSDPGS
From the text: hERG (Human Ether-à-go-go-Related Gene)-Channel Assay
hERG channel inhibition of compounds of the present invention has been investigated as follows:
HEK (human embryonic kidney) 293 cells were stably transfected with hERG cDNA.
Cells were superfused with a bath solution containing (mM): NaCl (137), KCl (4.0), MgCl2 (1.0), CaCl2 (1.8), Glucose (10), HEPES (10), pH 7.4 with NaOH. Patch pipettes were made from borosilicate glass tubing using a horizontal puller and filled with pipette solution containing (mM): K-aspartate (130), MgCl2 (5.0), EGTA (5.0), K2ATP (4.0), HEPES (10.0), pH 7.2 with KOH. Resistance of the microelectrodes was in the range between 2 and 5 MΩ.
Stimulation and recording:
Membrane currents were recorded using an EPC-10 patch clamp amplifier and PatchMaster software. hERG-mediated membrane currents were recorded at 35° C., using the whole-cell configuration of the patch-clamp technique. […] During each inter-pulse interval 4 pulses scaled down by a factor of 0.2 were recorded for a P/n leak subtraction procedure. […]
The different concentrations of the test compound were applied sequentially on each of the different cells investigated. A steady state level of baseline current was measured for at least 6 sweeps prior to the application of the first test compound concentration. […]
Peak current amplitudes were measured 3 ms after the ramp to +40 mV. […]

[6] = Animal experiments and sample analysis: plasma, brain and CSF concentration; type: in vivo; settings: rat, 2 h between administration and CSF sampling
Method: In-vivo Effect: Animal Experiments and Sample Analysis (CSF):
Test compounds were administered to animals (rat) different routes at doses of 10.0 or 5 μmol/kg, (both oral and intravenous). After compound administration, the animals were sacrificed in a CO2 chamber and CSF samples were carefully collected by puncture of the cisterna magna. Immediately after CSF sampling, blood was taken by heart puncture and brains were dissected out. Blood was collected in EDTA-coated microvettes and plasma was prepared by centrifugation. Concentration of the test compounds in plasma, CSF or brain homogenate was determined using HPLC-MS-MS.

Sequence of PDE 2A (O00408 whole entry, species assumed): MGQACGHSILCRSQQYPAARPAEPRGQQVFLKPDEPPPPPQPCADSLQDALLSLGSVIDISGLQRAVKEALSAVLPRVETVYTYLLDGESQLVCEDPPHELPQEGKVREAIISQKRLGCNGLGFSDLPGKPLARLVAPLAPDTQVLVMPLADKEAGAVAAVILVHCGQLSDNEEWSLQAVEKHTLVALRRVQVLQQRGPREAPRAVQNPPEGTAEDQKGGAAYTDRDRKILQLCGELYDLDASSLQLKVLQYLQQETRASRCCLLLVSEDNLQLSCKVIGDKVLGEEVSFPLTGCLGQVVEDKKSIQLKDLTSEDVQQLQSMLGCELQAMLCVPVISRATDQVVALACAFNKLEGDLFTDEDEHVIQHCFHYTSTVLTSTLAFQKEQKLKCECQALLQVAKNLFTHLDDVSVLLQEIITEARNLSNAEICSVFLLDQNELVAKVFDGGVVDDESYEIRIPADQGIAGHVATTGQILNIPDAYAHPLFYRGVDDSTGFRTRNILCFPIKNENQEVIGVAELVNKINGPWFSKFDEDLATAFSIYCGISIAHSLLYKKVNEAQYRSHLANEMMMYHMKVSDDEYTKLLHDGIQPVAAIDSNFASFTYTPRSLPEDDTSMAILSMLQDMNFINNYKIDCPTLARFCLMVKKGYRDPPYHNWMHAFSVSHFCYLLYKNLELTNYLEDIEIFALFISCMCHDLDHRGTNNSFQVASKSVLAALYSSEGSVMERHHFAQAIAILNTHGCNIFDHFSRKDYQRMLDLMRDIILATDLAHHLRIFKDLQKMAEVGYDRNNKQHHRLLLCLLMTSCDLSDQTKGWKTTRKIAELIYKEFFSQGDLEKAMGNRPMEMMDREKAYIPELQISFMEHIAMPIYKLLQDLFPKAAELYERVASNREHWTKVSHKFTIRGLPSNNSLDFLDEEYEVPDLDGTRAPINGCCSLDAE

For `Cc1nc2cccnc2n2c(-c3cc(OC4COCC4O)ccc3Cl)nnc12` (racemic) [Example 55], the IC50 [1] was 80 nM, the IC50 [2] was 5.3 µM and the “Half-life - t½” value [3] was 130 min.
In the case of `Cc1nc2ccc(C3CC3)nc2n2c(-c3cc(C4(O)CCOC4)ccc3Cl)nnc12` (racemic) [Example 97], the IC50 [2] is reported as 2.14 µM and the half-life at 1 μM ([3]; human, pooled liver microsomes, pH 7.6, human liver microsomes, read-out: Half-life - t½) is reported as 51 min.
Compound `Cc1nc2ccc(C(F)(F)F)nc2n2c(-c3cc(OC4COCC4O)ccc3F)nnc12` (racemic) [Example 106] has an IC50 [1] of 160 nM and an IC50 [2] of 1.94 µM.
Work on `Cc1nc2ccc(C3CC3)nc2n2c(-c3cc(OC4COCC4O)ccc3F)nnc12` (racemic) [Example 107] yielded an IC50 [1] of 7 nM and an IC50 [2] of 0.022 µM.
Compound `Cc1nc2ccc(C(F)(F)F)nc2n2c(-c3cc(OC4COCC4O)ccc3Cl)nnc12` (racemic) [Example 111] has an IC50 [1] of 22 nM and an IC50 [2] of 3.98 µM.
With `Cc1nc2cccnc2n2c(-c3cc(C4(O)CCCOC4)ccc3Cl)nnc12` (racemic) [Example 112] the IC50 [1] was 18 nM and the IC50 [2] was 7 µM.
Compound `Cc1nc2ccc(C(F)(F)F)nc2n2c(-c3cc(C4(O)CCCOC4)ccc3Cl)nnc12` (racemic) [Example 114] has an IC50 [1] of 22 nM.
For `Cc1nc2ccc(C(F)(F)F)nc2n2c(-c3cc(C4(O)CCOC4)ccc3Cl)nnc12` (racemic) [Example 115], the IC50 [1] was 39 nM.
In the case of `Cc1nc2ccc(C(F)(F)F)nc2n2c(-c3cc(OC4COCC4O)ccc3Cl)nnc12` (single isomer, unassigned) [Example 111a], the IC50 [1] is reported as 65 nM and the IC50 [2] is reported as 1.83 µM.
With `Cc1nc2ccc(C(F)(F)F)nc2n2c(-c3cc(OC4COCC4O)ccc3Cl)nnc12` (single isomer, unassigned) [Example 111b] the IC50 [1] was 11 nM and the IC50 [2] was 2.13 µM.
`Cc1nc2cccnc2n2c(-c3cc(C4(O)CCCOC4)ccc3Cl)nnc12` (single isomer, unassigned) [Example 112a] gave an IC50 [1] of 25 nM and an IC50 [2] of 2.6 µM.
Compound `Cc1nc2cccnc2n2c(-c3cc(C4(O)CCCOC4)ccc3Cl)nnc12` (single isomer, unassigned) [Example 112b] has an IC50 [1] of 68 nM and an IC50 [2] of 2.5 µM.
Work on `Cc1nc2ccc(C(F)(F)F)nc2n2c(-c3cc(C4(O)CCCOC4)ccc3Cl)nnc12` (single isomer, unassigned) [Example 114a] yielded an IC50 [1] of 9 nM.
Work on `Cc1nc2ccc(C(F)(F)F)nc2n2c(-c3cc(C4(O)CCCOC4)ccc3Cl)nnc12` (single isomer, unassigned) [Example 114b] yielded an IC50 [1] of 11 nM and an IC50 [2] of 10 µM.
Work on `Cc1nc2ccc(C(F)(F)F)nc2n2c(-c3cc(C4(O)CCOC4)ccc3Cl)nnc12` (single isomer, unassigned) [Example 115a] yielded an IC50 [1] of 82 nM.
Compound `Cc1nc2ccc(C(F)(F)F)nc2n2c(-c3cc(C4(O)CCOC4)ccc3Cl)nnc12` (single isomer, unassigned) [Example 115b] has an IC50 [1] of 45 nM and an IC50 [2] of 10 µM.
`Cc1nc2cccnc2n2c(-c3cc(OCCO)ccc3Cl)nnc12` [Example 15] showed an IC50 [4] of over 10 µM.
In the case of `Cc1nc2ccc(C3CC3)nc2n2c(-c3cc(OC[C@H](C)O)ccc3Cl)nnc12` [Example 35a], the IC50 [5] is reported as over 10 µM and the “Half-life - t½” value [3] is reported as 130 min.
`Cc1ccc2nc(C)c3nnc(-c4cc(CO)ccc4Cl)n3c2n1` [Example 60] gave an IC50 [1] of 19 nM.
With `Cc1ccc(C2(O)CCC2)cc1-c1nnc2c(C)nc3cccnc3n12` [Example 73] the IC50 [2] was 10 µM and the “Half-life - t½” value [3] was 130 min.
With `Cc1ccc(C(C)(C)O)cc1-c1nnc2c(C)nc3ccc(C4CC4)nc3n12` [Example 75] the “conc CSF” value [6] was 31 nmol/L, the conc brain [6] was 383 nmol/L and the conc plasma [6] was 1130 nmol/L. The “Half-life - t½” value [3] was 130 min.
`Cc1ccc(C2(O)CCOCC2)cc1-c1nnc2c(C)nc3ccc(C(F)(F)F)nc3n12` [Example 96b] gave an IC50 [2] of 10 µM.
`Cc1nc2ccc(C(F)(F)F)nc2n2c(-c3cc(C(C)(C)O)ccc3Cl)nnc12` [Example 103b] gave an IC50 [2] of 10 µM.
`Cc1nc2ccc(C3CC3)nc2n2c(-c3cc(C4(O)CCCOC4)ccc3Cl)nnc12` (stereo not shown) [Example 113] showed an IC50 [1] of 0.2 nM and an IC50 [2] of 3.19 µM.
